We go through 102 compounds from PubChem BioAssay AID1996.

Structures are written as SMILES. In brackets after ≈: the same amount, converted by molar mass.

The conditions of the data set: buffer; pH 7.4; 200.0 µM.
For `Cc1cc(=O)[nH]c(SCC(=O)NCCC2=CCCCC2)n1`, the solubility (kinetic) (usually the concentration staying in solution when a stock, usually in DMSO, is diluted into the medium) was 38.8 µg/mL (≈ 126 µM).
Then `Cc1ccc(NC(=S)NC(=O)C2CC2)c(C)c1`, with 5.9 µg/mL (≈ 23.8 µM).
`O=C(c1ccc2c(c1)OCO2)C1CCCN(C(=O)C2CCOCC2)C1` (configuration not stated): the solubility (kinetic) was over 51.8 µg/mL.
The compound `COc1ccc2nc(NC(=O)c3ccco3)sc2c1` registered a kinetic solubility of 7.4 µg/mL (≈ 27 µM).
For the compound `CN1C(=O)C(=O)/C(=C(/O)c2ccccc2)C1c1ccc(Br)cc1` (configuration not stated), the kinetic solubility was over 55.8 µg/mL.
Compound `CCOc1ccccc1C(=O)Nc1ccc2c(c1)C(=O)NC2=O` yielded a kinetic solubility of under 0.3 µg/mL.
Then `Cc1ccc(NC(=S)NCc2ccc(F)cc2)c(C)c1`, with 36.2 µg/mL (≈ 126 µM); and `O=C(c1ccc(-n2cccc2)cc1)N1CCCCC1`, with over 38.1 µg/mL; and `CC(=O)c1c(C)[nH]c(C(=O)COC(=O)C2(C)CC2(Cl)Cl)c1C` (configuration not stated), with 11.9 µg/mL (≈ 34.4 µM).
In the case of `Fc1ccc2[nH]c3c(c2c1)CN(C(=S)NCc1ccccc1)CC3` it was 5 µg/mL (≈ 14.7 µM).
In the case of `CCC(=O)Nc1c(-c2ccc(C)cc2)nc2ccc(C)cn12` it was 30.4 µg/mL (≈ 104 µM); in that of `O=C(O)CCc1nc2cc(Cl)ccc2n(Cc2ccccc2)c1=O`, over 51.4 µg/mL; in that of `CCC(NC(=O)c1ccncc1)c1ccccc1` (configuration not stated), over 36 µg/mL.
Compound `COc1cc(OC)c(C(=O)OCC(=O)NC2CCCC2)cc1OC` returned a kinetic solubility of over 50.6 µg/mL.
In the case of `CC(C)(C)C(=O)Nc1ccc(-c2cc3cc(Cl)ccc3o2)cc1` it was 0.8 µg/mL (≈ 2.44 µM).
In the case of `O=c1c2ccccc2[nH]c(=S)n1Cc1ccccc1Cl` it was 0.9 µg/mL (≈ 2.97 µM); in that of `COc1cc(Cl)c(C)cc1NC(=O)CN(C)C1CCS(=O)(=O)C1` (configuration not stated), over 54.1 µg/mL; in that of `CCN(CC)c1ccc(C(=O)OCC(=O)Nc2cc(C)on2)cc1`, 4.6 µg/mL (≈ 13.9 µM).
Then `O=C(O)CCn1c(=O)oc2cc(S(=O)(=O)N3CCCC3)ccc21`, with over 51.1 µg/mL; and `CC1CN(C2=N/C(=C/c3ccc4c(c3)OCO4)C(=O)N2)CC(C)O1` (configuration not stated), with 24.7 µg/mL (≈ 75 µM).
In the case of `Cc1cc(C(F)F)nn1CC(=O)NC1CCCC1`, the solubility (kinetic) was over 38.6 µg/mL.
With `COc1cc(Cl)c(C)cc1NC(=O)CN1C(=O)C2CC=CCC2C1=O` (configuration not stated), the kinetic solubility was over 54.4 µg/mL.
Then `O=C(Nc1ccc(Cl)cn1)c1cc2c(s1)-c1ccccc1OC2`, with under 0.4 µg/mL.
On to `O=C(Nc1cccc([N+](=O)[O-])c1)C1COc2ccccc2O1` (configuration not stated), for which the solubility (kinetic) stood at 5.4 µg/mL (≈ 18 µM).
Then `CC1CN(CC(=O)NCc2ccc(F)cc2)CC(C)O1` (configuration not stated), with over 42.1 µg/mL.
For the compound `S=c1nc(-c2ccc(Br)cc2)[nH]c2ccccc12`, the solubility (kinetic) stood at 0.7 µg/mL (≈ 2.21 µM).
As to `CC(=O)c1c(C)[nH]c(=S)c(C#N)c1-c1ccc(Cl)cc1`, the solubility (kinetic) was over 45.4 µg/mL.
In the case of `Cc1cc(=O)[nH]c2c(C)cc(S(=O)(=O)Nc3ccc(O)cc3)cc12` it was 49.7 µg/mL (≈ 144 µM); in that of `O=C(COC(=O)/C=C/c1ccc(F)cc1)NC1CC1`, 28.8 µg/mL (≈ 109 µM); in that of `CCc1nc2ccccc2c(C(=O)OCc2nc3ccccc3c(=O)[nH]2)c1C`, 14.5 µg/mL (≈ 38.8 µM).
As for `CC(=O)c1ccc(NS(=O)(=O)c2ccc(C(C)(C)C)cc2)cc1`, the solubility (kinetic) was 1.7 µg/mL (≈ 5.13 µM).
Turning to `Cc1cccc(NS(=O)(=O)c2ccc(C)c(C(=O)NCc3cccnc3)c2)c1`, the solubility (kinetic) was over 59.3 µg/mL.
`O=C(Nc1cc(N2CCOCC2)ncn1)NC1(C(F)(F)F)Oc2ccc(Cl)cc2O1` (configuration not stated) registered a kinetic solubility of 65.5 µg/mL (≈ 147 µM).
`O=C(Cn1cc(C(F)(F)F)ccc1=O)Nc1ccc2c(c1)OCCO2`: the kinetic solubility came to 25.2 µg/mL (≈ 71.1 µM).
Regarding `Cc1ccc2[nH]cc(CCNC(=O)c3ccc4c(c3)OCO4)c2c1`, the kinetic solubility is 38.3 µg/mL (≈ 119 µM).
Then `COc1ccc(CCNCc2cccn2C)cc1OC.Cl`, with over 46.6 µg/mL; and `O=C(CN1CCN(Cc2ccccc2)CC1)NCCc1ccccc1`, with 47.3 µg/mL (≈ 140 µM); and `O=[N+]([O-])c1cccnc1N1CCN(c2ccccc2F)CC1`, with 9.6 µg/mL (≈ 31.8 µM).
For `CCOc1cc(N2CCOCC2)c(OCC)cc1NC(=O)CSc1nnc(N)s1`, the kinetic solubility was over 65.9 µg/mL.
Turning to `COc1ccc(S(=O)(=O)Nc2cccnc2)c(Cl)c1Cl`, the kinetic solubility worked out at 21.5 µg/mL (≈ 64.5 µM).
For the compound `COCCCNC(=O)c1ccc(CSCc2ccc(C)cc2)o1`, the solubility (kinetic) was determined as 49.8 µg/mL (≈ 149 µM).
For `S=C1NCCNC(=S)NCCOCCOCCOCCN1`, the solubility (kinetic) was over 50.5 µg/mL.
For `O=C(NC1CCN(C(=O)Nc2ccc(F)cc2)CC1)c1cccc(F)c1`, the kinetic solubility was 6 µg/mL (≈ 16.7 µM).
For the compound `Cc1cc(C(=O)NC(C)C2CC2)c(Cl)cc1Cl` (configuration not stated), the solubility (kinetic) is 4.7 µg/mL (≈ 17.3 µM).
For the compound `COc1cc(CCC(=O)OCC(=O)N2CC(=O)Nc3ccccc32)cc(OC)c1OC`, the kinetic solubility is over 64.3 µg/mL.
The compound `Cc1ccc(OCCn2cc(/C=C/C(=O)O)c3ccccc32)cc1` displayed a solubility (kinetic) of over 48.2 µg/mL.
Consider `CC(C)NC(NC(=O)/C=C/c1ccccc1)C(Cl)(Cl)Cl` (configuration not stated), for which the kinetic solubility came out at 44.7 µg/mL (≈ 133 µM).
In the case of `CSc1ccccc1NC(=O)c1ccc2c(c1)CCN2S(C)(=O)=O`, the kinetic solubility is 9.1 µg/mL (≈ 25.1 µM).
In the case of `COc1ccc(OCC(=O)Nc2ccncc2)cc1` it was over 38.7 µg/mL; in that of `Cc1ccc(Cc2c(C)[nH]c(=S)[nH]c2=O)cc1`, 7.4 µg/mL (≈ 30 µM).
As to `O=C(O)C(=O)O.c1ccc(OCCN2CCOCC2)cc1`, the solubility (kinetic) was over 44.6 µg/mL.
Take `N#Cc1nc(-c2ccccc2F)oc1N1CCCCC1`: the kinetic solubility was determined as 2.3 µg/mL (≈ 8.48 µM).
With `O=C(Nc1cccc2cccnc12)c1ccccc1Cl`, the kinetic solubility is 0.3 µg/mL (≈ 1.06 µM). This solubility kinetic is about 7.7-fold lower than that of the compound before.
`Cc1cccc2nc(CSc3ncccc3C(=O)O)cn12`: the kinetic solubility was 39.3 µg/mL (≈ 131 µM).
In the case of `O=C(CSc1nccc(=O)[nH]1)NC1CCCCCC1` it was over 42.2 µg/mL.
In the case of `COc1ccc(C(C)=O)cc1CC(=O)NCCCn1ccnc1` it was over 47.3 µg/mL; in that of `O=c1c2ccccc2ncn1-c1ccccc1[N+](=O)[O-]`, 35.9 µg/mL (≈ 134 µM).
Compound `CC1=CCC2C(=O)N(c3ccc(OC(=O)c4ccco4)cc3)C(=O)C2C1` (configuration not stated) came in with a kinetic solubility of 21.5 µg/mL (≈ 61.2 µM).
`CN1C(=S)SC(/[N+]([O-])=C/c2c(F)cccc2Cl)C1(C)C` (configuration not stated): the solubility (kinetic) was over 49.9 µg/mL.
With `COc1ccc(C(=O)O/N=C(/c2cccs2)C(C)(C)C)cc1`, the solubility (kinetic) is 2.4 µg/mL (≈ 7.56 µM).
Then `CCCCC(=O)Nc1cc(OC)c(NC(=S)NC)cc1OC`, with over 48.8 µg/mL.
`Cc1noc(C)c1CSc1ccccc1C(=O)OC(C)C(N)=O` (configuration not stated) had a solubility (kinetic) of 11.5 µg/mL (≈ 34.4 µM).
Turning to `Cc1oc(-c2cccs2)nc1CN1CCC(C(=O)N2CCCC2)CC1`, the solubility (kinetic) was over 53.9 µg/mL.
Then `O=C(OCc1cc2ccccc2[nH]c1=O)c1ccc([N+](=O)[O-])cc1`, with 1.1 µg/mL (≈ 3.39 µM); and `CC(=O)Nc1ccc(NC(=O)N(c2ccccc2)c2ccccc2)cc1`, with 6.4 µg/mL (≈ 18.5 µM).
Compound `O=C(CN1C(=O)c2ccccc2S1(=O)=O)c1ccc(F)c(F)c1` came in with a kinetic solubility of 48.2 µg/mL (≈ 143 µM). Compared with the last compound, the solubility kinetic is about 7.5-fold higher.
`COc1cccc2[nH]c3ccccc3c(=O)c12` yielded a kinetic solubility of over 33.8 µg/mL.
Take `O=c1oc(/C=C/c2ccccc2)nc2ccccc12`: the kinetic solubility stood at 0.7 µg/mL (≈ 2.81 µM).
Consider `NC1=NC(=O)/C(=C/c2ccc(Br)cc2)S1`, for which the kinetic solubility came out at 1.8 µg/mL (≈ 6.36 µM).
As for `O=C(c1c(F)c(F)c(F)c(F)c1F)N1CCN(Cc2ccc3c(c2)OCO3)CC1`, the solubility (kinetic) turned out to be 2.3 µg/mL (≈ 5.55 µM).
Then `COc1ccc(NC(=S)NC(=O)c2ccccc2)cn1`, with 35.8 µg/mL (≈ 125 µM); and `O=C(O)CC(NS(=O)(=O)c1ccc2c(c1)OCCO2)c1ccccc1[N+](=O)[O-]` (configuration not stated), with over 61.3 µg/mL.
The compound `Cc1ccc(NC(=O)CCn2c(=O)[nH]c3ccsc3c2=O)cc1` gave a kinetic solubility of 8.2 µg/mL (≈ 24.9 µM).
`Cc1ccc2cc3cc(C(=O)NC4CCCCC4)oc3nc2c1` returned a kinetic solubility of 0.7 µg/mL (≈ 2.27 µM).
`O=C(NCc1ccc(Cl)cc1)N1CCOCC1` gave a kinetic solubility of over 38.2 µg/mL.
In the case of `O=C1C2CCCN2C(=S)N1C1CCCCC1` (configuration not stated), the solubility (kinetic) was over 35.8 µg/mL.
On to `NC(=S)COc1ccccc1`, for which the solubility (kinetic) came to 18.3 µg/mL (≈ 109 µM).
Take `Cc1c(C)n(C)c2ccc(C(=O)NCCCN3CCCC3)cc12`: the solubility (kinetic) is over 47 µg/mL.
In the case of `O=C(COC(=O)c1ccccn1)NC(=O)c1ccccc1` it was 35 µg/mL (≈ 123 µM); in that of `COC(=O)c1sccc1NS(=O)(=O)c1ccccc1`, 40.5 µg/mL (≈ 136 µM); in that of `CCc1ccccc1N1C(=O)C2C3C=CC(CC3)C2C1=O` (configuration not stated), over 42.2 µg/mL.
`CCCS(=O)(=O)C/C(N)=N/OC(=O)c1ccccc1Cl` had a kinetic solubility of 38 µg/mL (≈ 119 µM).
Then `O=C(CSc1nc2ncccc2[nH]1)NC1CCCCC1`, with over 43.6 µg/mL; and `O=C(Nc1cccnc1Cl)c1cc(-c2ccc(F)cc2)on1`, with under 0.2 µg/mL; and `O=C(NS(=O)(=O)c1ccccc1[N+](=O)[O-])c1ccccc1`, with over 45.9 µg/mL.
`Cc1ccc(CNC(=O)c2cc(=O)c3ccccc3o2)cc1` yielded a solubility (kinetic) of 3 µg/mL (≈ 10.2 µM).
As to `NC(=O)c1ccc(NC(=O)Nc2ccc3c(c2)OCO3)cc1`, the solubility (kinetic) turned out to be 3.8 µg/mL (≈ 12.7 µM).
As for `Fc1ccc(OCc2cc(-c3ccccc3)no2)cc1`, the solubility (kinetic) was under 0.6 µg/mL.
In the case of `CC(C)(C#N)NC(=O)C(=O)c1c(-c2ccccc2)cc2ccccn12` it was over 49.7 µg/mL; in that of `CC(C)(C)c1ccc(C2(C)NC(=O)NC2=O)cc1` (configuration not stated), 35.2 µg/mL (≈ 143 µM); in that of `Cc1cccc(NC(=O)CSc2cccc3cccnc23)c1`, 21.3 µg/mL (≈ 69.1 µM).
Then `O=C(COC(=O)C1CCC1)NCc1ccc(Cl)cc1Cl`, with over 47.4 µg/mL; and `O=C(NCCNC(=O)c1ccccn1)c1ccccc1`, with 36 µg/mL (≈ 134 µM).
In the case of `CCCCN1C(=O)CCC(C(=O)O)C1c1ccc([N+](=O)[O-])cc1` (configuration not stated) it was over 48.1 µg/mL; in that of `Cc1cc(C)c(C)c(S(=O)(=O)NC(C)C(=O)O)c1C` (configuration not stated), over 42.8 µg/mL; in that of `COc1ccc(CNc2c(CO)cnc3c2cnn3C)cc1`, over 44.8 µg/mL.
`COc1ccccc1NC(=S)N(Cc1cccnc1)Cc1ccco1` had a kinetic solubility of 48.3 µg/mL (≈ 137 µM).
As to `O=C(NCC(=O)c1ccccc1)OCc1ccc([N+](=O)[O-])cc1`, the solubility (kinetic) came out at 2.5 µg/mL (≈ 7.95 µM). This solubility kinetic is about 19-fold lower than that of the compound before.
Then `N#CCNc1ccc([N+](=O)[O-])cc1C#N`, with 30.3 µg/mL (≈ 150 µM); and `COc1ccc(NC(=O)COC(=O)CCc2ccc(S(=O)(=O)N3CCOCC3)cc2)cc1OC`, with 62 µg/mL (≈ 126 µM).
Turning to `CC(C)CC(=O)Nc1cccc(-c2nc3ccccc3[nH]2)c1`, the solubility (kinetic) is 32.2 µg/mL (≈ 110 µM). This solubility kinetic lies about 1.9-fold lower than the previous one.
Turning to `O=C(OCc1ccc([N+](=O)[O-])cc1)c1cc(=O)c2ccccc2o1`, the kinetic solubility was found to be 5.9 µg/mL (≈ 18.1 µM). Against the preceding compound, the solubility kinetic is about 5.5-fold lower.
